Laboratory results as given in patent US20250134848A1, “METHOD OF ADMINISTRATION OF […] THE INDUCTION OF TUMOR ASSOCIATED ANTIGENS” (BryoLogyx Inc., priority 2022, published 2025).

What was measured:
[1] = system: CD19 and CD22; assay: Changes in expression of CD19 and CD22 in tumor cell lines and human cells after varying exposure times; assay type: cell-based
Experimental: We have shown that short exposure to bryostatin-1 in vitro is sufficient to elevate tumor-associated antigen expression. In experiments performed on numerous tumor cell lines and human cells, bryostatin-1 was administered for varying periods of time, ranging from 45 min to 24 hrs, and changes in the expression of CD19 and CD22 were measured. […] This elevation took time to become evident and was maximal at 72 h.

[2] = system: CD19; assay: CD19 expression in human PBMC, antibody binding capacity by flow cytometry; assay type: cell-based; details: FIG. 1
Experimental: (§1) The ability of bryostatin-1 to promote antigen expression was evaluated in vitro. Human peripheral blood mononuclear cells (PBMC) were cultured according to previously published methods (Ramakrishna et al., 2019). Briefly, cells were washed and then treated with either bryostatin-1 (1 nM) or DMSO (vehicle control) for different times as indicated, ranging from 45 min to 24 hrs. Antibody binding capacity (ABC) was measured by flow cytometry (NCI flow lab); and plotted (FIGS. 1 and 2), either directly or as fold change over DMSO/vehicle control.

[3] = system: tumor associated antigen expression; details: animal experiments; cited from earlier work
[4] = system: antigen expression; details: FIGS. 3A and 3B; Ramakrishna et al. 2019; cited from earlier work
[5] = system: CD22; assay: CD22 expression in human PBMC, antibody binding capacity by flow cytometry; assay type: cell-based; details: FIG. 2
Experimental: as §1

[6] = system: CD22; details: B-cell tumors such as ALL and CLL; cited from earlier work
[7] = 1 nM, 45 min vs 3 hrs or 24 hrs
[8] = bryostatin-1 1 nM for 45 min, 3 hrs or 24 hrs

## CCC/C=C/C=C/C(=O)O[C@H]1/C(=C/C(=O)OC)C[C@H]2C[C@H]([C@@H](C)O)OC(=O)C[C@H](O)C[C@@H]3C[C@H](OC(C)=O)C(C)(C)[C@](O)(C[C@@H]4C/C(=C/C(=O)OC)C[C@H](/C=C/C(C)(C)[C@]1(O)O2)O4)O3 [bryostatin-1]
[1]; exposure 45 min to 24 hrs
  time at which elevation of antigen expression was maximal: 72 h
[1]; tumor cell lines and human cells, in vitro
  increase in antigen expression after short exposure (45 min) compared with 3 h or 24 h exposure: same level of increase in antigen expression as 3 h or 24 h exposure
[2]; [7]
  elevation of CD19 after 45 min incubation compared with longer incubations: same elevation in antigens as longer incubations
[2]; [8]
  expression of CD19: increases in expression of CD19
[3]
  tumor associated antigen expression after a single intraperitoneal administration: able to induce an elevation of tumor associated antigen expression
[4]
  time for which the increase in antigen expression remains elevated: 7 days
[5]; [7]
  elevation of CD22 after 45 min incubation compared with longer incubations: same elevation in antigens as longer incubations
[5]; [8]
  expression of CD22: increases in expression of CD22
[6]
  cell-surface expression of CD22: increase cell-surface expression of CD22
